Target: T1, CBP-BRD:CRBN thalidomide binding domain ternary complex (Homo sapiens, UniProt Q92793+Q96SW2)
T1 construct: GST-CBP (human, residues 1081-1197); the C-terminus of CRBN (human, residues 318-442); His6 with TEV cleavage site (N, cleaved yes); made in house; host or cells: Rosetta (DE3) cells (E. coli)
Experiment: TR-FRET CBP-BRD:PROTAC:CRBN ternary complex formation
Description: (PMSF), and 1 mM EDTA) and lysed by sonication. The lysates were clarified by centrifugation (18,000 rpm, 4 °C, 1 h).
For GST-CBP the soluble proteins were loaded onto a column packed with glutathione sepharose 4B (GE Healthcare) and subsequently eluted with 10 mM reduced glutathione in buffer containing 20 mM Tris-HCl pH 8.0, and 150 mM NaCl. Finally, a size exclusion step (HiLoad 16/600 Superdex 200 pg column from GE Healthcare) was used to further purify the protein in buffer containing 50 mM HEPES pH 7.5 and 150 mM NaCl. For His-CRBN and His-CRBN-Avi(biotin), the soluble fractions were loaded onto the HisTrap FF crude column (GE Healthcare) and washed with lysis buffer supplemented with 50 mM imidazole. The proteins were eluted with a buffer containing 250 mM imidazole, 100 mM Tris-HCl pH 8.0 and 500 mM NaCl. For His-CRBN-Avi(biotin) only, recombinant TEV protease was used to cleave the His6-tag during overnight dialysis at 4 °C against buffer containing 100 mM Tris-HCl pH 8.0 and 500 mM NaCl. The dialyzed sample was passed through the HisTrap FF crude column to remove His6-tagged TEV protease and uncleaved protein. […]
The maximal control contained no PROTAC, the blank contained no SK-20 and no PROTAC – these were replaced by the appropriate buffer. […] The samples were incubated for 3 h (20 °C, dark) and the signal was detected using the Infinite M1000 plate reader (Tecan). After excitation at 317 nm, emission at 620 and 665 nm was recorded. […]
were determined according to the following equation:
activity (%) = ΔF ∗ 100 = F−Fb ∗ 100 , where Ft is the TR-FRET signal in the absence of any compound (maximal control, 100 % activity), Fb the TR-FRET signal in the absence of the GST -CBP (blank, 0 % activity) and F the TR -FRET signal in the presence of the compound. Dose -response curves were plotted in GraphPad Prism 10.2.3 and fitted with nonlinear regression “log(inhibitor) vs. normalized response – variable slope”, from which IC 50 values were determined. […]

T1 sequence (Q92793 1081-1197): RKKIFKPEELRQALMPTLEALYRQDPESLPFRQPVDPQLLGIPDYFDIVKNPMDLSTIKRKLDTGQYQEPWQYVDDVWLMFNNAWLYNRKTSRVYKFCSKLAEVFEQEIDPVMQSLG
T1 sequence (Q96SW2 318-442): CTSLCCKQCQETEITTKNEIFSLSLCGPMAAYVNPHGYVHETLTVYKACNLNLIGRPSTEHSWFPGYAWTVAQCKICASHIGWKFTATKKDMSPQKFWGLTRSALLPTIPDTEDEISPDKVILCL

Cc1cc2c(NC(=O)c3cc(NC(=O)CCCCCCCCCCNc4cccc5c4C(=O)N(C4CCC(=O)NC4=O)C5=O)cc(-c4ccn(C)n4)c3)cccc2nn1 (centres unmarked) [dCE-2]
ternary complex formation (TR-FRET) (CBP-BRD and CRBN-thalidomide binding domain labeled with TR-FRET pair): robust formation of the ternary complex
PROTAC concentration at peak of hook curve (TR-FRET ternary complex): around 1 μM

Reference: PMC11423305, “Structure-Based Design of CBP/EP300 Degraders: When Cooperativity Overcomes Affinity” (JACS Au, 2024)
